Data taken from publication PMC10426190 (Breast Cancer Research : BCR, 2023).

System: E2-induced (ER target) genes in MCF7
Assay: Gene expression analysis by RNA-sequencing in MCF7 with E2 stimulation
Assay type: cell-based, human
Settings: MCF7; 1 nM E2 ± 1 μM compound, 24 h
Experimental: MCF7 were cultured in hormone deprivation media (with 10% charcoal-stripped FBS) for at least 3 days before assay. Trypsinized cells were seeded in a 12-well plate, stimulated with 1 nM β-estradiol (E2), and treated with/without 1 μM compounds for 24 h. Total RNA was extracted using the TRIzol reagent according to the manufacturer’s protocol. RNA purity and quantification were evaluated using the NanoDrop 2000 spectrophotometer (Thermo Scientific, USA). RNA integrity was assessed using the Agilent 2100 Bioanalyzer (Agilent Technologies, Santa Clara, CA, USA). Then the libraries were constructed using TruSeq Stranded mRNA LT Sample Prep Kit (Illumina, San Diego, CA, USA) according to the manufacturer’s instructions. The transcriptome sequencing and analysis were conducted by OE Biotech Co., Ltd. (Shanghai, China). The libraries were sequenced on an Illumina HiSeq X Ten platform and 150 bp paired-end reads were generated. […] Raw data (raw reads) of FASTq format were firstly processed using Trimmomatic and the low-quality reads were removed to obtain the clean reads. […] The clean reads were mapped to the human genome (GRCh38) using HISAT2 [27]. FPKM [28] of each gene was calculated using Cufflinks, and the read counts of each gene were obtained by HTSeqcount. Differential expression analysis was performed using the DESeq (2012) R package.
MCF7 with hormone-deprived pre-treatment were administrated ER ligands or not present with 1 nM E2 stimulation for 24 h incubation in a 12-well plate. Total mRNA was isolated from treated cells and sequenced on an Illumina HiSeq X Ten platform. FPKM of each gene was calculated using Cufflinks and Differential expression genes analysis by using the DESeq (2012) R package. […] T47D EFM-19 and HCC1500 cells were grown in RPMI media supplemented with 10% charcoal-stripped FBS for 14 days and then treated with ER antagonist (1 μM) or DMSO in the presence E2 (1nM) stimulation for 24 h before RNA isolation and gene expression analysis as described in methods. […] The uteruses were harvested 24 h after the final doses and stained by toluidine blue. Endometrial height was assessed from the basement membrane to the luminal border (scale bar in green lines: 200 μm), Arrows indicate the uterine epithelium (e).

For `C[C@]12CC[C@@H]3c4ccc(O)cc4CC[C@H]3[C@@H]1CC[C@@H]2O` [E2, β-estradiol], the ACTG2 expression was 3.78 FPKM, the ADCY1 expression was 29.74 FPKM and the AGR3 expression was 24.59 FPKM. It also gave an AMZ1 expression of 3.24 FPKM, an ANLN expression of 47.32 FPKM and an ARHGAP36 expression of 3.84 FPKM. The ASCL1 expression was 5.48 FPKM, the ASF1B expression was 78.22 FPKM and the ASMTL-2 expression was 6.46 FPKM. It also gave an ATAD2 expression of 69.95 FPKM, an ATRNL1 expression of 0.42 FPKM and an AURKB expression of 43.03 FPKM. For the same compound, the BIRC5 expression was 50.28 FPKM, the BLM expression was 8.02 FPKM and the BMPER expression was 1.39 FPKM. The BRCA1 expression was 9.45 FPKM, the BRCA2 expression was 5.65 FPKM and the BRIP1 expression was 54.99 FPKM. The BUB1B expression was 18.35 FPKM, the C1orf226 expression was 13.05 FPKM and the C5AR2 expression was 3.18 FPKM. For the same compound, the CA2 expression was 184.51 FPKM, the CA12 expression was 52.56 FPKM and the CALCR expression was 6.65 FPKM. It also gave a CAV1 expression of 11.53 FPKM, a CCN5 expression of 50.43 FPKM and a CCNA2 expression of 35.91 FPKM. For the same compound, the CCNE2 expression was 17.15 FPKM, the CD99-2 expression was 8.67 FPKM and the CDC6 expression was 16.34 FPKM. The CDC25A expression was 7.21 FPKM, the CDC45 expression was 22.61 FPKM and the CDCA3 expression was 12.59 FPKM. For the same compound, the CDCA4 expression was 35.30 FPKM, the CDCA5 expression was 32.97 FPKM and the CDCA7 expression was 8.46 FPKM. The CDH26 expression was 1.84 FPKM, the CDK1 expression was 34.56 FPKM and the CDT1 expression was 51.94 FPKM. For the same compound, the CENPI expression was 6.53 FPKM, the CENPU expression was 12.95 FPKM and the CHAF1B expression was 5.21 FPKM. For the same compound, the CHEK1 expression was 5.59 FPKM, the CKS1B expression was 97.65 FPKM and the CLSPN expression was 5.95 FPKM. The COL12A1 expression was 4.88 FPKM, the CXCL12 expression was 18.59 FPKM and the DDIAS expression was 9.79 FPKM. It also gave a DHRSX-2 expression of 1.19 FPKM, a DKK1 expression of 65.08 FPKM and a DNA2 expression of 7.03 FPKM. The DPYSL5 expression was 1.59 FPKM, the DSCC1 expression was 15.71 FPKM and the DTL expression was 6.96 FPKM. The E2F1 expression was 27.20 FPKM, the E2F2 expression was 5.64 FPKM and the E2F7 expression was 9.64 FPKM. It also gave an E2F8 expression of 10.32 FPKM, an ELOVL2 expression of 16.88 FPKM and an EME1 expression of 10.05 FPKM. The ERCC6L expression was 4.70 FPKM, the ESCO2 expression was 7.26 FPKM and the ESPL1 expression was 17.48 FPKM. For the same compound, the EXO1 expression was 10.16 FPKM, the FAM20A expression was 2.20 FPKM and the FAM111B expression was 12.41 FPKM. For the same compound, the FANCA expression was 22.66 FPKM, the FANCD2 expression was 15.48 FPKM and the FANCI expression was 48.65 FPKM. For the same compound, the FEN1 expression was 69.25 FPKM, the FIGNL1 expression was 5.08 FPKM and the FKBP4 expression was 141.57 FPKM. It also gave a GATA4 expression of 0.17 FPKM, a GFRA1 expression of 93.16 FPKM and a GINS1 expression of 23.84 FPKM. It also gave a GINS2 expression of 36.18 FPKM, a GJA1 expression of 1.09 FPKM and a GLA expression of 91.41 FPKM. It also gave a GP1BB expression of 2.96 FPKM, a GPR68 expression of 2.46 FPKM and a GPRIN1 expression of 8.93 FPKM. For the same compound, the GREB1 expression was 60.67 FPKM, the H2AX expression was 195.62 FPKM and the HBB expression was 2.07 FPKM. It also gave an HELLS expression of 7.42 FPKM, an HEY2 expression of 5.27 FPKM and an HMGB2 expression of 247.66 FPKM. It also gave an IGFBP4 expression of 131.73 FPKM, an IGSF1 expression of 11.09 FPKM and an ITGA2B expression of 1.22 FPKM. For the same compound, the KIF11 expression was 25.57 FPKM, the KIF18B expression was 9.55 FPKM and the KIFC1 expression was 32.81 FPKM. It also gave a KLK11 expression of 14.79 FPKM, a KNL1 expression of 7.74 FPKM and a KNTC1 expression of 15.58 FPKM. For the same compound, the LHX2 expression was 3.63 FPKM, the LIG1 expression was 50.95 FPKM and the LMNB1 expression was 103.66 FPKM. For the same compound, the MAD2L1 expression was 15.82 FPKM, the MCM2 expression was 79.68 FPKM and the MCM3 expression was 73.54 FPKM. The MCM4 expression was 90.54 FPKM, the MCM5 expression was 31.11 FPKM and the MCM6 expression was 49.04 FPKM. The MCM7 expression was 195.09 FPKM, the MCM10 expression was 11.30 FPKM and the MELK expression was 23.52 FPKM. For the same compound, the MKI67 expression was 43.57 FPKM, the MYB expression was 14.56 FPKM and the MYBL1 expression was 7.63 FPKM. The MYBL2 expression was 105.97 FPKM, the NCAPG2 expression was 42.44 FPKM and the NCAPG expression was 16.64 FPKM. It also gave an NPY1R expression of 21.66 FPKM, an ORC1 expression of 9.75 FPKM and an ORC6 expression of 17.34 FPKM. The PAQR4 expression was 27.39 FPKM, the PBK expression was 34.81 FPKM and the PCLAF expression was 64.57 FPKM. For the same compound, the PCNA expression was 139.06 FPKM, the PDZK1 expression was 5.01 FPKM and the PGR expression was 8.19 FPKM. The PKIB expression was 60.35 FPKM, the PKMYT1 expression was 41.08 FPKM and the POLA1 expression was 6.08 FPKM. It also gave a POLA2 expression of 14.49 FPKM, a POLD1 expression of 24.97 FPKM and a POLE2 expression of 6.15 FPKM. For the same compound, the POLE expression was 25.41 FPKM, the POLQ expression was 6.41 FPKM and the PRIM1 expression was 28.80 FPKM. The PRSS23 expression was 215.68 FPKM, the RAB31 expression was 21.61 FPKM and the RAD51AP1 expression was 13.82 FPKM. The RAD51 expression was 9.69 FPKM, the RAD54L expression was 12.35 FPKM and the RAMP3 expression was 13.53 FPKM. It also gave an RAPGEFL1 expression of 7.70 FPKM, an RBL1 expression of 5.83 FPKM and an RECQL4 expression of 32.15 FPKM. It also gave an RERG expression of 8.59 FPKM, an RET expression of 10.12 FPKM and an RFC2 expression of 36.71 FPKM. The RFC3 expression was 9.92 FPKM, the RFC4 expression was 27.17 FPKM and the RNASEH2A expression was 63.93 FPKM. For the same compound, the RRM1 expression was 40.40 FPKM, the RRM2 expression was 98.16 FPKM and the RUBCNL expression was 1.40 FPKM. It also gave an SDK2 expression of 1.00 FPKM, an SFXN2 expression of 31.80 FPKM and an SHCBP1 expression of 7.21 FPKM. For the same compound, the SKA3 expression was 14.05 FPKM, the SLC6A14 expression was 33.54 FPKM and the SMC2 expression was 14.75 FPKM. For the same compound, the SPC24 expression was 17.07 FPKM, the SPC25 expression was 16.49 FPKM and the STC2 expression was 134.11 FPKM. For the same compound, the TACC3 expression was 40.66 FPKM, the TCF19 expression was 21.19 FPKM and the TCOF1 expression was 21.81 FPKM. It also gave a TGM2 expression of 1.78 FPKM, a TICRR expression of 10.96 FPKM and a TK1 expression of 126.85 FPKM. For the same compound, the TMEM26 expression was 4.29 FPKM, the TMEM164 expression was 18.93 FPKM and the TONSL expression was 21.56 FPKM. It also gave a TOP2A expression of 69.34 FPKM, a TP73 expression of 3.93 FPKM and a TRIP13 expression of 21.48 FPKM. For the same compound, the TUBA1B expression was 1112.26 FPKM, the TUBB expression was 568.06 FPKM and the TYMS expression was 74.96 FPKM. The UBE2C expression was 67.26 FPKM, the UBE2T expression was 108.61 FPKM and the UHRF1 expression was 26.62 FPKM. It also gave a UNG expression of 64.43 FPKM, a WDHD1 expression of 10.21 FPKM and a WDR62 expression of 15.52 FPKM. It also gave a WDR76 expression of 5.46 FPKM, an XRCC2 expression of 7.64 FPKM and an XRCC3 expression of 19.64 FPKM. The ZGRF1 expression was 3.51 FPKM and the ZNF367 expression was 15.85 FPKM.
